For 1 compound, Pharmacological activity results are on record in patent publication US10912763B2 (priority 2010, dated 2021).

A short description of the assay: Pharmacological activity of the decomposition product.

In the case of `Fc1ccc2[nH]c3c(c2c1)CCOC31CC=C(c2ccccc2)CC1` (stereo not shown) [6′-fluoro-4-phenyl-4′,9′-dihydro-3′H-spiro[cyclohex-3-ene-1,1′-pyrano[3,4-b]indole]], the Pharmacological activity result was “pharmacologically inactive”.
